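A five-concentration, 48-hour dose response in 96-well plates underlies each endpoint, interpolated linearly between surrounding concentrations. GI50 is the concentration that inhibits growth by half.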 The source made the active and inactive calls. No stated cut-off is given here; in the data, active = GI50 up to about 1.1 µM and inactive = higher.
Experiments:
Assay in all cases: inhibition of tumour cell growth, NCI panel, 48 h
[1] = test system: SF-268
[2] = test system: SW-620
[3] = test system: NCI/ADR-RES
[4] = test system: SF-295
[5] = test system: MDA-MB-231
[6] = test system: Hs-578T
[7] = test system: HOP-62
[8] = test system: MDA-N
[9] = test system: HOP-92
[10] = test system: NCI-H226
[11] = test system: UO-31
[12] = test system: M14
[13] = test system: DU-145
[14] = test system: U-251
[15] = test system: TK-10
[16] = test system: SK-MEL-2
[17] = test system: A549
[18] = test system: IGROV-1
[19] = test system: CCRF-CEM

Measured: GI50

Cc1oc2c(c1C)S(=O)(=O)C(C#N)=C(c1ccccc1)N2
inactive: [1] > 100 µM | [2] > 100 µM | [3] > 100 µM | [4] > 100 µM | [5] > 100 µM | [6] > 100 µM | [7] > 100 µM | [8] > 100 µM | [9] > 100 µM | [10] > 100 µM | [11] > 100 µM | [12] > 100 µM | [13] > 100 µM | [14] > 100 µM | [15] > 100 µM | [16] > 100 µM | [17] > 100 µM | [18] > 100 µM

COc1ccc(C2SCC(=O)N2NC(=O)c2ccc(NC(C)=O)cc2)cc1 (stereo not drawn)
inactive: [1] > 100 µM | [2] > 100 µM | [3] > 100 µM | [4] > 100 µM | [5] 26.5 µM | [6] > 100 µM | [7] > 100 µM | [8] > 100 µM | [9] 38 µM | [10] > 100 µM | [11] > 100 µM | [12] > 100 µM | [13] > 100 µM | [14] 40.6 µM | [15] > 100 µM | [16] > 100 µM | [17] > 100 µM | [18] > 100 µM

COc1ccc(NCc2c(O)ccc3ccccc23)cc1
inactive: [1] 19.9 µM | [2] 21.4 µM | [3] 40.5 µM | [4] 43 µM | [5] 30 µM | [6] 60.5 µM | [7] 68.2 µM | [8] 30.1 µM | [9] 16.1 µM | [11] 11.3 µM | [12] 14 µM | [13] 76 µM | [14] 28.3 µM | [15] 17.9 µM | [16] 64.1 µM | [17] 61.4 µM | [18] 20.4 µM

Cc1cc(S(=O)(=O)NC2=NCCCN2)c(S)cc1Cl
inactive: [1] 87.1 µM | [2] 19.9 µM | [3] > 100 µM | [5] 72.9 µM | [6] 24.5 µM | [7] 54.3 µM | [8] 43.9 µM | [10] 22.3 µM | [11] 58.9 µM | [12] 29.6 µM | [13] 72.4 µM | [14] 34.4 µM | [15] 26.9 µM | [16] 12.4 µM | [17] 21.6 µM | [18] 27.5 µM

CC(C)(C)n1c(=O)n(-c2ccccc2)n(C(C)(C)C)c1=O
inactive: [2] > 100 µM | [3] > 100 µM | [4] > 100 µM | [5] > 100 µM | [6] > 100 µM | [7] > 100 µM | [8] > 100 µM | [9] > 100 µM | [19] > 100 µM | [10] > 100 µM | [11] > 100 µM | [12] > 100 µM | [14] > 100 µM | [15] > 100 µM | [16] > 100 µM | [17] > 100 µM | [18] > 100 µM

CC1=C(C(N)=O)C(c2ccncc2)C(C#N)=C2SCC(=O)N12 (stereo not drawn)
inactive: [1] > 100 µM | [2] > 100 µM | [3] > 100 µM | [4] > 100 µM | [5] > 100 µM | [6] > 100 µM | [7] > 100 µM | [8] > 100 µM | [9] > 100 µM | [19] > 100 µM | [10] > 100 µM | [11] > 100 µM | [12] > 100 µM | [13] > 100 µM | [14] > 100 µM | [16] > 100 µM | [17] > 100 µM | [18] > 100 µM

CCOC(=O)c1cc2c3c(c(C(C)=O)c(O)c2[nH]1)N(C(C)=O)CC3
inactive: [1] 55.8 µM | [2] > 100 µM | [3] 29.9 µM | [4] 52.7 µM | [5] > 100 µM | [6] 51.9 µM | [7] > 100 µM | [8] > 100 µM | [19] 46 µM | [10] 71.4 µM | [11] 31.2 µM | [12] 76.6 µM | [13] 82.6 µM | [14] > 100 µM | [15] 40.6 µM | [16] > 100 µM | [18] 31.8 µM

CN(C)c1ccc(/C=C(/NC(=O)c2ccccc2)C(=O)Nc2ccccc2C(=O)O)cc1
inactive: [1] > 100 µM | [2] > 100 µM | [3] > 100 µM | [4] > 100 µM | [5] > 100 µM | [6] > 100 µM | [7] > 100 µM | [8] > 100 µM | [9] > 100 µM | [19] > 100 µM | [10] > 100 µM | [11] > 100 µM | [12] > 100 µM | [13] > 100 µM | [14] > 100 µM | [16] > 100 µM | [17] > 100 µM | [18] > 100 µM

CCOC(=O)C1CCC(=O)N1C(=O)c1ccccc1Cl (stereo not drawn)
inactive: [1] > 100 µM | [2] > 100 µM | [3] > 100 µM | [4] > 100 µM | [5] > 100 µM | [6] > 100 µM | [7] > 100 µM | [8] > 100 µM | [9] > 100 µM | [19] > 100 µM | [10] > 100 µM | [11] > 100 µM | [12] > 100 µM | [13] > 100 µM | [14] > 100 µM | [15] > 100 µM | [17] > 100 µM | [18] > 100 µM

CC(=N/N=C/c1ccccn1)/C(C)=N/N=C(C)/C(C)=N/N=C(C)/C(C)=N/N=C(C)/C(C)=N\N=C\c1ccccn1
inactive: [1] > 100 µM | [2] > 100 µM | [3] > 100 µM | [4] > 100 µM | [5] > 100 µM | [6] > 100 µM | [7] > 100 µM | [8] > 100 µM | [9] > 100 µM | [10] > 100 µM | [11] > 100 µM | [12] > 100 µM | [13] > 100 µM | [14] > 100 µM | [15] > 100 µM | [16] > 100 µM | [17] > 100 µM | [18] > 100 µM

CSc1nncc2[nH]cnc12
inactive: [1] > 100 µM | [2] > 100 µM | [3] > 100 µM | [4] > 100 µM | [5] > 100 µM | [6] > 100 µM | [7] > 100 µM | [8] > 100 µM | [19] > 100 µM | [10] > 100 µM | [11] > 100 µM | [12] > 100 µM | [13] > 100 µM | [14] > 100 µM | [15] > 100 µM | [16] > 100 µM | [17] > 100 µM | [18] > 100 µM

O=C1CSC(c2c(O)ccc3ccccc23)N1n1c(S)nnc(/C=C/c2c(O)ccc3ccccc23)c1=O (stereo not drawn)
inactive: [4] 6.71 µM | [6] 44.4 µM | [7] 4.84 µM | [8] 4.05 µM | [9] 16.3 µM | [13] 2.01 µM | [14] 1.33 µM | [15] 1.18 µM | [16] 1.17 µM | [17] 1.32 µM | [18] 2.28 µM
active: [1] 0.771 µM | [2] 0.753 µM | [3] 0.851 µM | [5] 0.63 µM | [19] 0.244 µM | [11] 0.92 µM | [12] 0.935 µM

CSc1cc(-c2cccs2)sc1-c1cc(SC)c(-c2sc(-c3sc(-c4cccs4)cc3SC)cc2SC)s1
inactive: [1] > 100 µM | [2] > 100 µM | [3] > 100 µM | [4] > 100 µM | [5] > 100 µM | [6] > 100 µM | [7] > 100 µM | [8] > 100 µM | [9] > 100 µM | [19] > 100 µM | [12] > 100 µM | [13] > 100 µM | [14] > 100 µM | [15] > 100 µM | [16] > 100 µM | [17] > 100 µM | [18] > 100 µM

C=C1[C@@H]2CCC3[C@]4(C)C(CC[C@@]5(C)C(=O)O[C@H](O)[C@@H]45)[C@H](O)[C@]3(C2)[C@H]1OC1OC(CO)C(O)C(O)C1O (stereo partly drawn)
inactive: [1] > 50 µM | [2] > 50 µM | [3] > 50 µM | [4] > 50 µM | [5] > 50 µM | [6] > 50 µM | [7] > 50 µM | [8] > 50 µM | [10] > 50 µM | [11] > 50 µM | [12] > 50 µM | [13] > 50 µM | [14] > 50 µM | [15] > 50 µM | [16] > 50 µM | [17] > 50 µM | [18] > 50 µM

Clc1nc(Cl)nc(Nc2cccc3ccccc23)n1
inactive: [1] > 10 µM | [2] > 10 µM | [3] > 10 µM | [4] > 10 µM | [5] > 10 µM | [6] > 10 µM | [7] > 10 µM | [8] > 10 µM | [19] > 10 µM | [10] > 10 µM | [11] > 10 µM | [12] > 10 µM | [13] > 10 µM | [14] > 10 µM | [15] > 10 µM | [16] > 10 µM | [17] > 10 µM | [18] > 10 µM

— ChEMBL document CHEMBL1201862, “PubChem BioAssay data set” (2004)
